According to publication PMC12040169 (PLOS Biology, 2025):

Experiment: in vitro
Conditions: human, hela cells, % viability

| Structure (SMILES) | viability at 28.5 h, 10 µM | viability at 28.5 h, 10 µM (bulk resorufin, single well) |
| --- | --- | --- |
| O=C(Nc1ccc(F)cc1)c1cccc(NS(=O)(=O)c2cc(Br)c(Cl)s2)c1 [CBK050410] | 93.4% |  |
| O=C(N/N=C\c1ccccc1O)c1nc([N+](=O)[O-])n[nH]1 [CBK261475] | 99.8% |  |
| O=C(Oc1ccccc1)N1CCC(n2c(=O)[nH]c3ccccc32)CC1 [CBK149865] | 89% |  |
| O=C1CCCN1CP(=O)(O)CN1CCCCC1 [CBK262302] | 85.6% |  |
| CCCCNC(=O)c1ccc2nc(CC)c(N(C)CCC(C)C)n2c1 [CBK145477] | 100% |  |
| CCn1cc(C(=O)N2CCC(Oc3ccccc3C)(C(=O)O)CC2)cn1 [CBK306699] | 118% |  |
| Cc1c(C(=O)N2CCC(CN)C2)nnn1-c1ccc2ncccc2c1 (centres unmarked) [CBK304734] | 101% |  |
| NC(=O)c1c(NC(=O)C2CC(=O)OC23CCCCC3)sc2c1CCCCC2 (centres unmarked) [CBK264189] | 102% |  |
| Cc1cccc(NC(=O)Cn2cc(C(=O)COc3ccccc3)c3ccccc32)c1 [CBK268654] | 104% |  |
| Cc1cc2nc(CC(=O)NN)[nH]c2cc1C [CBK012180] | 89.3% |  |
| Cn1c(=O)[nH]c(=O)c2c1nc(SCCN1CCOCC1)n2CCCc1ccccc1 [CBK269234] | 95.5% |  |
| CS(=O)(=O)c1ccc(CNC(=O)c2ccccc2Nc2cccc(C(F)(F)F)c2)cc1 [CBK149580] | 92% |  |
| Cc1ccc(NC(=O)c2cscn2)c(C)n1 [CBK200297] | 102% |  |
| CC(CCc1ccccc1)NC(=O)C(C)Sc1nnc(-c2cccs2)n1C1CC1 (centres unmarked) [CBK297131] | 89.5% |  |
| COc1cc(NC(=O)CCc2ccccc2)nc(OC)n1 [CBK072282] | 79.5% |  |
| O=S(=O)(c1sccc1F)N1CCOCC1c1cccc(F)c1 (centres unmarked) [CBK304730] | 82.6% |  |
| Cc1ccc(C2(C)CC(C)(C)N(C(=O)CSc3nnc[nH]3)c3ccccc32)cc1 (centres unmarked) [CBK073918] | 89.2% |  |
| Fc1cccc(Nc2nc(C3CCNCC3)c3ccccn23)c1 [CBK281522] | 107% |  |
| CCc1[nH]ncc1C(=O)N1CCN(c2nccc(OC)n2)CC1 [CBK304915] | 86.4% |  |
| Cc1nc2n(CCN3CCCCC3)c3ccccc3n2c1C(=O)c1cccs1 [CBK278242B] | 88.6% |  |
| CCOC(=O)C1=C(c2ccccc2)Nc2ncnn2C1c1cccc(OC)c1OC (centres unmarked) [CBK266353] | 106% |  |
| CC(=O)Nc1ccc(S(=O)(=O)N2CCN(c3cc4[nH]c(=O)[nH]c4cc3[N+](=O)[O-])CC2)cc1 [CBK267013] | 97.7% |  |
| CCN1C(=O)/C(=C/c2cc3c(cc2Cl)OCO3)NC1=S [CBK265117] | 96.5% |  |

| Structure (SMILES) | viability at 28.5 h, 10 µM | viability at 28.5 h, 10 µM (bulk resorufin, single well) |
| --- | --- | --- |
| Cn1nccc1CNc1ncn(CC(=O)N2CCCCCC2)n1 [CBK306454] | 90% |  |
| COc1ccc(CCN2C(=O)c3[nH]nc(-c4cc(C)c(C)cc4O)c3C2c2ccccc2)cc1 (centres unmarked) [CBK269154] | 106% |  |
| Cc1nc(CC(=O)Nc2nn(C)c3cccc(N4CCOCC4)c23)cs1 [CBK306627] | 89.7% |  |
| O=C(CN1CCCC1)N1CCCC1c1nc2ccccc2[nH]1 (centres unmarked) [CBK284003] | 89.4% |  |
| C=CCn1c(COc2cccc3ccc(C)nc23)nnc1SC [CBK266608] | 94.2% |  |
| Cc1ccnc2nc(C(=O)OCC(=O)Nc3ccc4c(c3)CCC4)nn12 [CBK305853] | 82.1% |  |
| CCNc1ncnc2c1oc1ccccc12 [CBK263298] | 89.8% |  |
| COc1ccc(F)cc1-c1cccc(CC2(C(=O)NC3CCCCC3)CCOCC2)c1 [CBK285541] | 92.8% |  |
| Cc1cc(C)c2c(c1)COC1(CCN(Cc3ccccc3)CC1)O2 [CBK061572] | 102% |  |
| COc1ccc2[nH]c3c(c2c1)CCN(CCc1ccc(F)cc1)C3 [CBK082819T] | 92.3% |  |
| Oc1ccc(CCNc2ncnc3[nH]cnc23)cc1 [CBK017724C] | 101% |  |
| O=c1[nH]c(=O)c2cc(S(=O)(=O)NCc3ccccc3CN3CCCC3)ccc2[nH]1 [CBK286395] | 108% |  |
| CC(C)n1nnnc1-c1ccccc1NS(=O)(=O)C1CC1 [CBK305509] | 97.7% |  |
| COc1cccc(C2C(C(=O)c3ccc(Cl)cc3)=C(O)C(=O)N2CCCN2CCOCC2)c1 (centres unmarked) [CBK264865] | 105% |  |
| COC(=O)c1c(-c2ccncc2)csc1NC(=O)Cc1ccc([N+](=O)[O-])cc1 [CBK268119] | 90.1% |  |
| CN(Cc1ccsc1)C(=O)c1cccc(S(=O)(=O)NC(C)(C)C)c1 [CBK305425] | 81.2% |  |
| CCn1c(=O)n(CC(=O)N2CCCCC2C)c2cccnc21 (centres unmarked) [CBK283896] | 103% |  |
| O=C(O)/C=C/c1cccc(-c2cn3ccnc3c(N3CCN(c4ccncc4)CC3)n2)c1 [CBK066326] | 94.8% |  |
| N#CCCCN1CCC(Oc2nccnc2OCc2ccc(Br)cc2F)CC1 [CBK153647] | 94.7% |  |
| Cn1cnnc1C1CCN(C(=O)CC2OCCc3sccc32)CC1 (centres unmarked) [CBK304912] | 90.2% |  |
| Cc1ccn(CCNC(=O)c2cccc(N3CCCC3=O)c2)n1 [CBK282642] | 105% |  |
| CCN1CCOC(CNCc2ccc(OCC(N)=O)cc2)C1 (centres unmarked) [CBK305108] | 96.8% |  |
| O=C(NCc1ccccn1)c1ccccc1Nc1cccc(C(F)(F)F)c1 [CBK107252] | 86.3% |  |

| Structure (SMILES) | viability at 28.5 h, 10 µM | viability at 28.5 h, 10 µM (bulk resorufin, single well) |
| --- | --- | --- |
| COCCN1CCCC(NC(C)c2ccc(OC)c(F)c2)C1 (centres unmarked) [CBK305099] | 80.9% |  |
| Cc1nn(Cc2ccc(F)cc2)c2sc(C(=O)NCc3ccc(S(N)(=O)=O)cc3)cc12 [CBK295181] | 87% |  |
| Nc1ncc(-c2ccsc2)c2cccnc12 [CBK067580] | 97.5% |  |
| CCCNC(=O)Cn1nc(C)n2c(cc3sccc32)c1=O [CBK284020] | 102% |  |
| COC(=O)C1=COC(C)C2CN3CCC4(NC(=O)c5c4ccc(OC)c5OC)C3CC12 (centres unmarked) [CBK003303] | 107% |  |
| Cc1cccn2cc(CSc3nnc4[nH]c5ccccc5n34)nc12 [CBK296996] | 94.1% |  |
| CCN(CCCNC(=O)c1cc(-c2cccnc2)nc2ccccc12)c1cccc(C)c1 [CBK294465] | 86.7% |  |
| CSc1sc(C(=O)CC#N)c2c1C=CCC2 [CBK006004] | 91% |  |
| NC(=O)C1(N2CCCCC2)CCN(CC(=O)Nc2ccc(Br)cc2)CC1 [CBK268364] | 86.2% |  |
| O=C1NC2(CCN(C(=O)c3ccc(C(F)(F)F)c(F)c3)CC2)Oc2ccc(-c3ccccc3)cc21 [CBK115841] | 99.7% |  |
| NC(=O)CSc1nnc(NC(=O)c2ccccc2)s1 [CBK287628] | 92.8% |  |
| CC1CCN(CN2C(=O)C(=O)c3ccccc32)CC1 [CBK261304] | 91.7% |  |
| C=CCN1C(=O)C2(CC(=O)N(Cc3ccc(OC)c(OC)c3)C2=O)c2ccccc21 (centres unmarked) [CBK075148] | 114% |  |
| CC(=O)c1ccc(O)c2ncccc12 [CBK015821] | 110% |  |
| NC(=O)C1(N2CCCCC2)CCN(C(=O)CSc2nnc(-c3ccccc3)n2C2CCCCC2)CC1 [CBK266219] | 101% |  |
| CN(C)c1cccc(-c2nc(-c3cccs3)cnc2N)c1 [CBK063979] | 93.5% |  |
| CS(=O)(=O)N1CC2(CCN(CCc3ccccc3)CC2)c2ccccc21 [CBK084015] | 88.3% |  |
| O=C(CSc1nnc(SCc2cccc3ccccc23)s1)Nc1ccccc1C(F)(F)F [CBK267575] | 103% |  |
| S=C(NCCc1c[nH]c2ccccc12)NCc1ccco1 [CBK267157] | 92.7% |  |
| CC(C(=O)N1CCCC(COc2ccc(F)cc2)C1)n1ccnc1 (centres unmarked) [CBK282027] | 85.8% |  |
| CC1=CCCN(C(=O)C23CCOCC2CN(c2ncc(F)cn2)C3)C1 (centres unmarked) [CBK304263] | 87.3% |  |
| N=c1c2c3c(sc2ncn1CCCn1ccnc1)CCCC3 [CBK264211] | 95.5% |  |
| COc1cc(-c2cn3ccnc3c(NC3CC3)n2)cc(OC)c1OC [CBK066184] | 90% |  |

| Structure (SMILES) | viability at 28.5 h, 10 µM | viability at 28.5 h, 10 µM (bulk resorufin, single well) |
| --- | --- | --- |
| NS(=O)(=O)c1ccc(CCNC(=O)c2cc(-c3ccccc3)nc3ccccc23)cc1 [CBK264365] | 96.9% |  |
| COC(=O)c1cccc(CN2CCC3(CC2)NC(=O)Cc2ccccc23)c1 [CBK039807] | 101% |  |
| COc1cccc(OC)c1-c1cn2ccnc2c(N(C)CCN(C)C)n1 [CBK066398] | 97.3% |  |
| COc1cccc(-c2ccc(NC(=O)CCC3C(=O)Nc4ccccc43)cc2)c1 (centres unmarked) [CBK285851] | 116% |  |
| Cc1ccc2[nH]c(SCc3nc(O)c4ccccc4n3)nc2c1 [CBK269908] | 84% |  |
| CN(Cc1ccc(-c2ccc(S(C)(=O)=O)cc2)nc1)C1CCN(C(=O)c2ccc(Cl)c(Cl)c2)CC1 [CBK164101T] | 104% |  |
| O=C(Cc1ccc(Cl)c(Cl)c1)N1CCCC2(CCN(Cc3ccccc3)C2)C1 (centres unmarked) [CBK136872] | 91.9% |  |
| Cn1c(=O)[nH]c(=O)c2c1nc(N/N=C/c1cc(Br)ccc1O)n2CCO [CBK139415] | 97.8% |  |
| CCOc1ccc2c(c1)CN(CCCc1nc(C)no1)CC2 [CBK305076] | 99.2% |  |
| COc1ccc2oc(=O)c(C(=O)Nc3cccc(O)c3)cc2c1 [CBK270070] | 87.3% |  |
| COc1cccc2c1OC1(CCN(C(=O)Nc3ccc(F)cc3F)CC1)OC2 [CBK060689] |  | 100% |
| O=C(O)C1CCN(C(=O)[C@@H]2Cc3ccccc3CN2)CC1 [CBK286638] | 91% |  |
| Nc1ncc(-c2cc(C(F)(F)F)cc(C(F)(F)F)c2)nc1NC1CCC(O)CC1 (centres unmarked) [CBK063808] | 92% |  |
| Cc1ccc(S(=O)(=O)N(CC(=O)O)c2cccc(Cl)c2)cc1 [CBK262387] | 91.7% |  |
| COc1cncc(C(NC(=O)c2ccc3c(c2)CCC3)[C@H]2C[C@H](O)C2)c1 (some centres unmarked) [CBK307646] | 105% |  |
| O=C(Nc1cccc(Cl)c1)c1cc2cc(O)ccc2cc1O [CBK016894] | 98.2% |  |
| C1CCc2nnc(C34CC5CC(CC(C5)C3)C4)n2CC1 [CBK200068] | 83.5% |  |
| CCCc1n[nH]c(-c2ccccc2Cl)c1C(=O)OCC [CBK113547] | 107% |  |
| Cc1sc2nc(N)c(C(=O)NC(C)C)cc2c1C [CBK269259] | 115% |  |
| Cc1cc(C)nc(N2CCC(C3CC=CCN(CCc4ccccc4)C3=O)CC2)n1 (centres unmarked) [CBK285575] | 105% |  |
